Measurements reported in ChEMBL document CHEMBL1153563, “Comparative in vitro activities of caspofungin and micafungin, determined using the method of the European Committee on Antimicrobial Susceptibility Testing, against yeast isolates obtained in France in 2005-2006” (2008).

Assays:
Format in all cases: functional
Meyerozyma caribbica = assay: Antifungal activity against Candida fermentati after 24 to 48 hrs by AFST-EUCAST based broth microdilution method
Kluyveromyces marxianus = assay: Antifungal activity against Candida kefyr after 24 to 48 hrs by AFST-EUCAST based broth microdilution method
[1] = test system: Meyerozyma guilliermondii; assay: Antifungal activity against Candida guilliermondii after 24 to 48 hrs by AFST-EUCAST based broth microdilution method
Clavispora lusitaniae = assay: Antifungal activity against Candida lusitaniae after 24 to 48 hrs by AFST-EUCAST based broth microdilution method
Kodamaea ohmeri = assay: Antifungal activity against Kodamaea ohmeri after 24 to 48 hrs by AFST-EUCAST based broth microdilution method
[Candida] inconspicua = Antifungal activity against Candida inconspicua after 24 to 48 hrs by AFST-EUCAST based broth microdilution method; settings: Pichia inconspicua
Debaryomyces hansenii = assay: Antifungal activity against Candida famata after 24 to 48 hrs by AFST-EUCAST based broth microdilution method
Trichosporon = assay: Antifungal activity against Trichosporon after 24 to 48 hrs by AFST-EUCAST based broth microdilution method
Wickerhamomyces anomalus = assay: Antifungal activity against Candida pelliculosa after 24 to 48 hrs by AFST-EUCAST based broth microdilution method; settings: Hansenula anomala
Pichia fermentans = assay: Antifungal activity against Candida lambica after 24 to 48 hrs by AFST-EUCAST based broth microdilution method
Nakaseomyces nivariensis = assay: Antifungal activity against Candida nivariensis after 24 to 48 hrs by AFST-EUCAST based broth microdilution method
Geotrichum = assay: Antifungal activity against Geotrichum after 24 to 48 hrs by AFST-EUCAST based broth microdilution method
Cryptococcus neoformans = assay: Antifungal activity against […] after 24 to 48 hrs by AFST-EUCAST based broth microdilution method
Candida dubliniensis = assay: Antifungal activity against Candida dubliniensis after 24 to 48 hrs by AFST-EUCAST based broth microdilution method
Saccharomyces cerevisiae = assay: Antifungal activity against Saccharomyces cerevisiae after 24 to 48 hrs by AFST-EUCAST based broth microdilution method
Yarrowia lipolytica = assay: Antifungal activity against Candida lipolytica after 24 to 48 hrs by AFST-EUCAST based broth microdilution method
Candida albicans = assay: Antifungal activity against Candida albicans after 24 to 48 hrs by AFST-EUCAST based broth microdilution method
Candida africana = assay: Antifungal activity against Candida africana after 24 to 48 hrs by AFST-EUCAST based broth microdilution method
Zygosaccharomyces = assay: Antifungal activity against Zygosaccharomyces after 24 to 48 hrs by AFST-EUCAST based broth microdilution method
Pichia kudriavzevii = assay: Antifungal activity against Candida krusei ATCC 6258 after 24 to 48 hrs by AFST-EUCAST based broth microdilution method
[Candida] intermedia = Antifungal activity against Candida intermedia after 24 to 48 hrs by AFST-EUCAST based broth microdilution method; settings: Sungouiella intermedia
Kluyveromyces lactis = assay: Antifungal activity against Candida sphaerica after 24 to 48 hrs by AFST-EUCAST based broth microdilution method
Pichia norvegensis = assay: Antifungal activity against Candida norvegensis after 24 to 48 hrs by AFST-EUCAST based broth microdilution method
Candida parapsilosis = assay: Antifungal activity against Candida parapsilosis ATCC 22019 after 24 to 48 hrs by AFST-EUCAST based broth microdilution method; settings: Lodderomyces parapsilosis
[Candida] haemuloni = Antifungal activity against Candida haemulonii after 24 to 48 hrs by AFST-EUCAST based broth microdilution method; settings: Candidozyma haemuli
Diutina rugosa = assay: Antifungal activity against Candida rugosa after 24 to 48 hrs by AFST-EUCAST based broth microdilution method
Cyberlindnera saturnus = assay: Antifungal activity against Williopsis saturnus after 24 to 48 hrs by AFST-EUCAST based broth microdilution method
Candida tropicalis = assay: Antifungal activity against Candida tropicalis after 24 to 48 hrs by AFST-EUCAST based broth microdilution method
Cyberlindnera jadinii = assay: Antifungal activity against Candida utilis after 24 to 48 hrs by AFST-EUCAST based broth microdilution method; settings: Williopsis jadinii
Rhodotorula mucilaginosa = assay: Antifungal activity against Rhodotorula mucilaginosa after 24 to 48 hrs by AFST-EUCAST based broth microdilution method
Nakaseomyces glabratus = assay: Antifungal activity against Candida glabrata after 24 to 48 hrs by AFST-EUCAST based broth microdilution method

CC[C@H](C)C[C@H](C)CCCCCCCCC(=O)N[C@H]1C[C@@H](O)[C@@H](NCCN)NC(=O)[C@@H]2[C@@H](O)CCN2C(=O)[C@H]([C@H](O)CCN)NC(=O)[C@H]([C@H](O)[C@@H](O)c2ccc(O)cc2)NC(=O)[C@@H]2C[C@@H](O)CN2C(=O)[C@H]([C@@H](C)O)NC1=O [CASPOFUNGIN]
1 µg/mL: MIC50 (Meyerozyma caribbica) | MIC50 (Clavispora lusitaniae) | MIC90 (Clavispora lusitaniae) | MIC50 (Kodamaea ohmeri) | MIC90 ([Candida] inconspicua) | MIC90 (Debaryomyces hansenii) | MIC90 (Wickerhamomyces anomalus) | MIC90 (Pichia fermentans) | MIC90 (Nakaseomyces nivariensis) | MIC50 (Geotrichum) | MIC90 (Candida dubliniensis) | MIC50 (Saccharomyces cerevisiae) | MIC90 (Yarrowia lipolytica) | MIC90 (Candida africana) | MIC50 (Zygosaccharomyces) | MIC50 (Pichia kudriavzevii) | MIC90 ([Candida] intermedia) | MIC90 (Kluyveromyces lactis) | MIC90 (Pichia norvegensis) | MIC50 ([Candida] haemuloni) | MIC90 (Diutina rugosa) | MIC50 (Cyberlindnera saturnus) | MIC90 (Candida tropicalis) | MIC90 (Cyberlindnera jadinii) | MIC90 (Nakaseomyces glabratus)
16 µg/mL: MIC90 (Kodamaea ohmeri) | MIC50 (Trichosporon) | MIC90 (Geotrichum) | MIC90 (Cryptococcus neoformans) | MIC90 (Saccharomyces cerevisiae) | MIC90 (Zygosaccharomyces) | MIC90 (Cyberlindnera saturnus) | MIC50 (Rhodotorula mucilaginosa)
0.25 µg/mL: MIC50 (Kluyveromyces marxianus)
0.5 µg/mL: MIC90 (Kluyveromyces marxianus) | MIC50 ([Candida] inconspicua) | MIC50 (Debaryomyces hansenii) | MIC50 (Wickerhamomyces anomalus) | MIC50 (Pichia fermentans) | MIC50 (Nakaseomyces nivariensis) | MIC50 (Candida dubliniensis) | MIC50 (Yarrowia lipolytica) | MIC50 (Candida albicans) | MIC90 (Candida albicans) | MIC50 (Candida africana) | MIC50 ([Candida] intermedia) | MIC50 (Kluyveromyces lactis) | MIC50 (Pichia norvegensis) | MIC50 (Diutina rugosa) | MIC50 (Candida tropicalis) | MIC50 (Cyberlindnera jadinii) | MIC50 (Nakaseomyces glabratus)
2 µg/mL: MIC90 (Meyerozyma caribbica) | MIC50 [1] | MIC90 [1] | MIC90 (Pichia kudriavzevii) | MIC50 (Candida parapsilosis) | MIC90 (Candida parapsilosis) | MIC90 ([Candida] haemuloni)
8 µg/mL: MIC50 (Cryptococcus neoformans)
